According to patent EP4273147A1, “SUBSTITUTED SPIROLACTAMS, SALTS THEREOF AND THEIR USE AS HERBICIDALLY ACTIVE SUBSTANCES” (Bayer Aktiengesellschaft, priority 2022, dated 2023):

Key:
[1] = test system: ABUTH; experiment: Herbicidal pre-emergence action (Table A1); assay type: in vivo, Abutilon theophrasti; conditions: application rate 1280 g/ha; visual grading after ca. 3 weeks vs untreated controls (100% = plants have died off, 0% = as control plants)
Method in brief: (§1)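 Two-species sowings per pot, mono- plus dicotyledonous weeds; soil type sandy loam, seed covered after sowing.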

[2] = test system: ECHCG; experiment: Herbicidal pre-emergence action (Table A2); assay type: in vivo, Echinochloa crus-galli; conditions: application rate 320 g/ha; visual grading after ca. 3 weeks
Method in brief: as §1

[3] = test system: LOLRI; experiment: Herbicidal pre-emergence action (Table A3); assay type: in vivo, Lolium rigidum; conditions: application rate 320 g/ha; visual grading after ca. 3 weeks
Method in brief: as §1

[4] = test system: MATIN; experiment: Herbicidal pre-emergence action (Table A4); assay type: in vivo, Matricaria inodora; conditions: application rate 320 g/ha; visual grading after ca. 3 weeks
Method in brief: as §1

[5] = test system: SETVI; experiment: Herbicidal pre-emergence action (Table A5); assay type: in vivo, Setaria viridis; conditions: application rate 320 g/ha; visual grading after ca. 3 weeks
Method in brief: as §1

[6] = test system: STEME; experiment: Herbicidal pre-emergence action (Table A6); assay type: in vivo, Stellaria media; conditions: application rate 320 g/ha; visual grading after ca. 3 weeks
Method in brief: as §1

[7] = test system: POAAN; experiment: Herbicidal pre-emergence action (Table A7); assay type: in vivo, Poa annua; conditions: application rate 320 g/ha; visual grading after ca. 3 weeks
Method in brief: as §1

[8] = test system: ALOMY; experiment: Herbicidal pre-emergence action (Table A9); assay type: in vivo, Alopecurus myosuroides; conditions: application rate 320 g/ha; visual grading after ca. 3 weeks
Method in brief: as §1

[9] = test system: KCHSC; experiment: Herbicidal pre-emergence action (Table A10); assay type: in vivo, Kochia scoparia; conditions: application rate 1280 g/ha; visual grading after ca. 3 weeks
Method in brief: as §1

[10] = test system: VERPE; experiment: Herbicidal pre-emergence action (Table A11); assay type: in vivo, Veronica persica; conditions: application rate 320 g/ha; visual grading after ca. 3 weeks
Method in brief: as §1

[11] = test system: ABUTH; experiment: Herbicidal post-emergence action (Table B1); assay type: in vivo, Abutilon theophrasti; conditions: application rate 1280 g/ha; treated at one-leaf stage; rated visually after about 3 weeks vs untreated controls (100% = plants have died, 0% = like control plants)
Method in brief: (§2)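 Sow weeds in sandy loam pots, one species each; grow in greenhouse 2–3 weeks to one-leaf stage; treat; hold ~3 weeks under optimum conditions; rate damage visually vs untreated (0–100%).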

[12] = test system: ALOMY; experiment: Herbicidal post-emergence action (Table B2); assay type: in vivo, Alopecurus myosuroides; conditions: application rate 1280 g/ha; rated visually after about 3 weeks
Method in brief: as §2

[13] = test system: ECHCG; experiment: Herbicidal post-emergence action (Table B3); assay type: in vivo, Echinochloa crus-galli; conditions: application rate 320 g/ha; rated visually after about 3 weeks
Method in brief: as §2

[14] = test system: MATIN; experiment: Herbicidal post-emergence action (Table B6); assay type: in vivo, Matricaria inodora; conditions: application rate 320 g/ha; rated visually after about 3 weeks
Method in brief: as §2

[15] = test system: POAAN; experiment: Herbicidal post-emergence action (Table B7); assay type: in vivo, Poa annua; conditions: application rate 320 g/ha
Method in brief: as §2

[16] = test system: SETVI; experiment: Herbicidal post-emergence action (Table B8); assay type: in vivo, Setaria viridis; conditions: application rate 1280 g/ha
Method in brief: as §2

[17] = test system: STEME; experiment: Herbicidal post-emergence action (Table B9); assay type: in vivo, Stellaria media; conditions: application rate 1280 g/ha
Method in brief: as §2

[18] = test system: VERPE; experiment: Herbicidal post-emergence action (Table B10); assay type: in vivo, Veronica persica; conditions: application rate 320 g/ha
Method in brief: as §2

[19] = test system: ALOMY; experiment: Herbicidal pre-emergence action, section C (Table C2); assay type: in vivo, Alopecurus myosuroides; conditions: application rate 320 g/ha; visual grading after ca. 3 weeks
[20] = test system: ECHCG; experiment: Herbicidal pre-emergence action, section C (Table C6); assay type: in vivo, Echinochloa crus-galli; conditions: visual grading after ca. 3 weeks
[21] = test system: LOLRI; experiment: Herbicidal pre-emergence action, section C (Table C7); assay type: in vivo, Lolium rigidum; conditions: application rate 320 g/ha; visual grading after ca. 3 weeks
[22] = test system: MATIN; experiment: Herbicidal pre-emergence action, section C (Table C8); assay type: in vivo, Matricaria inodora; conditions: application rate 320 g/ha; visual grading after ca. 3 weeks
[23] = test system: SETVI; experiment: Herbicidal pre-emergence action, section C (Table C10); assay type: in vivo, Setaria viridis; conditions: application rate 80 g/ha; visual grading after ca. 3 weeks
[24] = test system: VIOTR; experiment: Herbicidal pre-emergence action, section C (Table C12); assay type: in vivo, Viola tricolor; conditions: visual grading after ca. 3 weeks
[25] = test system: ZEAMX; experiment: Pre-emergence effects on crop plants (Table D1); assay type: in vivo, Zea mays; conditions: crop plant; application rate 80 g/ha; visual grading after ca. 3 weeks
[26] = test system: GLXMA; experiment: Pre-emergence effects on crop plants (Table D4); assay type: in vivo, Glycine max; conditions: crop plant; application rate 80 g/ha; visual grading after ca. 3 weeks
[27] = test system: BRSNW; experiment: Pre-emergence effects on crop plants (Table D5); assay type: in vivo, Brassica napus; conditions: crop plant; application rate 80 g/ha; visual grading after ca. 3 weeks
[28] = test system: ALOMY; experiment: Herbicidal post-emergence action, section E (Table E2); assay type: in vivo, Alopecurus myosuroides; conditions: application rate 320 g/ha; assessed visually after ca. 3 weeks
From the text: (§3) 2 to 3 weeks after sowing, the test plants were sprayed in the single-leaf stage.

[29] = test system: ECHCG; experiment: Herbicidal post-emergence action, section E (Table E5); assay type: in vivo, Echinochloa crus-galli; conditions: application rate 320 g/ha; assessed visually after ca. 3 weeks
From the text: as §3

[30] = test system: LOLRI; experiment: Herbicidal post-emergence action, section E (Table E6); assay type: in vivo, Lolium rigidum; conditions: application rate 320 g/ha; assessed visually after ca. 3 weeks
From the text: as §3

[31] = test system: SETVI; experiment: Herbicidal post-emergence action, section E (Table E8); assay type: in vivo, Setaria viridis; conditions: application rate 320 g/ha; assessed visually after ca. 3 weeks
From the text: as §3

[32] = test system: VERPE; experiment: Herbicidal post-emergence action, section E (Table E9); assay type: in vivo, Veronica persica; conditions: application rate 320 g/ha; assessed visually after ca. 3 weeks
From the text: as §3

[33] = test system: ZEAMX; experiment: Post-emergence effects on crop plants (Table F1); assay type: in vivo, Zea mays; conditions: application rate 320 g/ha, crop plant ZEAMX
From the text: as §3

[34] = test system: TRZAS; experiment: Post-emergence effects on crop plants (Table F2); assay type: in vivo, Triticum aestivum; conditions: crop plant TRZAS
From the text: as §3

[35] = test system: ORYZA; experiment: Post-emergence effects on crop plants (Table F3); assay type: in vivo, Oryza sativa; conditions: application rate 80 g/ha, crop plant ORYZA
From the text: as §3

[36] = test system: GLXMA; experiment: Post-emergence effects on crop plants (Table F4); assay type: in vivo, Glycine max; conditions: application rate 80 g/ha, crop plant GLXMA
From the text: as §3

[37] = test system: BRSNW; experiment: Post-emergence effects on crop plants (Table F5); assay type: in vivo, Brassica napus; conditions: application rate 80 g/ha, crop plant BRSNW
From the text: as §3

[38] = test system: ORYZA; experiment: Pre-emergence effects on crop plants (Table D3); conditions: crop plant; application rate 80 g/ha; visual grading after ca. 3 weeks
[39] = test system: AMARE; experiment: Herbicidal pre-emergence action, section C (Table C3); assay type: in vivo, Amaranthus retroflexus; conditions: application rate 320 g/ha; visual grading after ca. 3 weeks
From the text: Seeds of mono- and dicotyledonous weed plants and crop plants were sown, in plastic or organic planting pots, in sandy loam and covered with soil. The compounds according to the invention, formulated in the form of wettable powders (WP) or as emulsifiable concentrates (EC), were applied to the surface of the covering soil as aqueous suspension or emulsion, with the addition of 0.5% of an additive, at an application rate of 600 1 of water/ha (converted). Following treatment, the pots were placed in a greenhouse and kept under optimum growth conditions for the test plants.

[40] = test system: DIGSA; experiment: Herbicidal pre-emergence action, section C (Table C5); assay type: in vivo, Digitaria sanguinalis; conditions: application rate 80 g/ha; visual grading after ca. 3 weeks
[41] = test system: POLCO; experiment: Herbicidal pre-emergence action, section C (Table C9); assay type: in vivo, Polygonum convolvulus; conditions: application rate 80 g/ha; visual grading after ca. 3 weeks
[42] = test system: VERPE; experiment: Herbicidal pre-emergence action, section C (Table C11); assay type: in vivo, Veronica persica; conditions: application rate 320 g/ha; visual grading after ca. 3 weeks
[43] = test system: ABUTH; experiment: Herbicidal post-emergence action, section E (Table E1); assay type: in vivo, Abutilon theophrasti; conditions: application rate 320 g/ha; assessed visually after ca. 3 weeks
From the text: as §3

[44] = test system: VIOTR; experiment: Herbicidal post-emergence action, section E (Table E10); assay type: in vivo, Viola tricolor; conditions: application rate 320 g/ha; assessed visually after ca. 3 weeks
From the text: as §3

O=C1N(Cc2ccccc2F)CCCC12CCCN(Cc1cccc(F)c1F)C2=O (racemic) [I-003]
pre-emergence activity against ABUTH [1]: 90% | pre-emergence activity against ECHCG [2]: 100% | pre-emergence activity against LOLRI [3]: 100% | pre-emergence activity against MATIN [4]: 90% | pre-emergence activity against SETVI [5]: 100% | pre-emergence activity against STEME [6]: 90% | pre-emergence activity against POAAN [7]: 100% | pre-emergence activity against ALOMY [8]: 90% | pre-emergence activity against KCHSC [9]: 90% | pre-emergence activity against VERPE [10]: 90% | post-emergence activity against ABUTH [11]: 90% | post-emergence activity against ALOMY [12]: 90% | post-emergence activity against ECHCG [13]: 90% | post-emergence activity against MATIN [14]: 90% | post-emergence activity against POAAN [15]: 100% | post-emergence activity against SETVI [16]: 90% | post-emergence activity against STEME [17]: 100% | post-emergence activity against VERPE [18]: 90% | pre-emergence activity against ALOMY [19]: 90% | pre-emergence activity against ECHCG ([20]; application rate 80 g/ha): 100% | pre-emergence activity against LOLRI [21]: 90% | pre-emergence activity against MATIN [22]: 90% | pre-emergence activity against SETVI [23]: 100% | pre-emergence activity against VIOTR ([24]; application rate 320 g/ha): 90% | pre-emergence activity against ZEAMX [25]: 10% | pre-emergence activity against GLXMA [26]: 10% | pre-emergence activity against BRSNW [27]: 10% | post-emergence activity against ALOMY [28]: 90% | post-emergence activity against ECHCG [29]: 80% | post-emergence activity against LOLRI [30]: 80% | post-emergence activity against SETVI [31]: 80% | post-emergence activity against VERPE [32]: 80% | post-emergence activity against ZEAMX [33]: 20% | post-emergence activity against TRZAS ([34]; application rate 80 g/ha): 0% | post-emergence activity against ORYZA [35]: 20% | post-emergence activity against GLXMA [36]: 20% | post-emergence activity against BRSNW [37]: 20% | pre-emergence activity against ORYZA [38]: 20%

O=C1N(Cc2c(F)cccc2F)CCCC12CCCN(Cc1c(F)cccc1F)C2=O (racemic) [I-006, 2,8-bis[(2,6-difluorophenyl)methyl]-2,8-diazaspiro[5.5]undecane-1,7-dione]
pre-emergence activity against ALOMY [19]: 100% | pre-emergence activity against AMARE [39]: 90% | pre-emergence activity against DIGSA [40]: 100% | pre-emergence activity against ECHCG ([20]; application rate 320 g/ha): 100% | pre-emergence activity against LOLRI [21]: 100% | pre-emergence activity against MATIN [22]: 80% | pre-emergence activity against POLCO [41]: 100% | pre-emergence activity against SETVI [23]: 100% | pre-emergence activity against VERPE [42]: 90% | pre-emergence activity against VIOTR ([24]; application rate 38 g/ha (so in the source)): 90% | post-emergence activity against ABUTH [43]: 80% | post-emergence activity against ALOMY [28]: 90% | post-emergence activity against ECHCG [29]: 80% | post-emergence activity against VERPE [32]: 80% | post-emergence activity against VIOTR [44]: 80% | post-emergence activity against ZEAMX [33]: 20% | post-emergence activity against TRZAS ([34]; application rate 320 g/ha): 10% | post-emergence activity against ORYZA [35]: 10% | post-emergence activity against GLXMA [36]: 20% | post-emergence activity against BRSNW [37]: 20%
